# In patent publication US20230010299A1, “HETEROCYCLIC TRPML1 AGONISTS” (LIBRA THERAPEUTICS, INC., priority 2019, published 2023):
# Columns and labels:
# TRPML1 [1] = molecular target: T1, TRPML1 (Homo sapiens, UniProt Q9GZU1); assay: TRPML1 automated patch-clamp (QPatch 16X); type: cell-based; conditions: HEK T-REx/GcaMP6f/TRPML1 cells, current with compound/current in vehicle, extracellular pH 4.6
# T1 construct: expressed in transfected cells
# Description: TRPML1—Automated Patch-Clamp
# HEK T-REx/GcaMP6f/TRPML1 cells were cultured in DMEM High Glucose (Lonza BioWhittaker cat. BE12-604F/U1; 500 mL) supplemented with Fetal Bovine Serum TET-FREE (Euroclone cat. EC S0182L; 50 mL, Penicillin-Streptomycin (BioWhittaker, cat. DE17-602E; 5 mL of 100× Solution), G418 (Sigma, cat. G8168; 0.25 mg/ml) and Zeocyn (InvivoGen, cat. ant-zn-1; 50 μg/ml).
# HEK T-REx/GcaMP6f/TRPML1 cells were seeded 48 or 72 hours before experiment, at a concentration of 8*10^6/4*10^6 cells onto a T225 flask. Just before the experiments, cells were washed twice with D-PBS w/o Ca^2+/Mg^2+ (Euroclone cat. ECB4004L) and detached from the flask with trypsin-EDTA (Sigma cat. T4174; diluted 1/10). Cells were then re-suspended in the suspension solution: 25 mL EX-CELL ACF CHO medium(Sigma cat. C5467); 0.625 mL HEPES (Sigma cat. H0887); 0.25 mL of 100× Penicillin/Streptomycin (Euroclone cat. ECB3001D), 0.1 mL of Soybean Trypsin Inhibitor 10 mg/mL (Sigma cat. T6522) and placed on the QPatch 16X.
# Dilution from stock were prepared just before the experiments in the extracellular solution (0.25% final DMSO concentration). DMSO solution was obtained from AppliChem (cat. A3672)
# Patch Clamp Solutions: • Intracellular solution (mM): 120 CsMeSO3, 4 NaCl, 2 MgCl2, 10 EGTA, 20 HEPES, 2 Mg-ATP (pH 7.2 with CsOH). • Extracellular solution (mM): 140 NaGluconate, 5 KCl, 1 MgCl2, 2 CaCl2), 10 Glucose, 10 MES (pH 4.6 with HCl).
# Patch Clamp Analysis—QPatch 16X
# For the voltage clamp experiments on TRPML1, data were sampled at 5 KHz. After establishment of the seal and the passage in the whole cell configuration, the cells were held at −20 mV and the TRPML1 current was evoked using the voltage protocol illustrated in FIG. 2, applied every 5 sec. (50 ms at −20 mV; 20 ms at −120 mV, 1000 ms ramp from −120 to […]; 20 ms at +40 mV, and back to −20 mV); in the absence (vehicle period, i.e. 0.25% DMSO) and in the presence of increasing concentrations (3) of the compound under investigation.
# Agonists: For data collection, the Sophion proprietary software was used and the analysis was performed off-line using Excel and GraphPad Prism (V 8.00). Results are reported in Table 6, expressed as TRPML1 current fold increase evoked by the compound under investigation (i.e. current in the presence of the compound/current in vehicle).
# TRPML1 [2] = molecular target: T1, TRPML1; assay: Cellular TRPML1 assay (FLIPR TETRA, GCaMP6f calcium read-out); type: cell-based; conditions: HEK T-REx/GCaMP6f/TRPML1 cells; Ca2+ response over 300 s, normalized to ML-SA1 50 μM; Ca2+ free or Optimem condition not given; read-out: Ec50 (Activity of TRPML1 agonists)
# Outline: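 HEK T-REx cells stably expressing TRPML1 and GCaMP6f, assayed 24 h after seeding in Ca2+-free Tyrode's (pH 7.4) or Opti-MEM. Compounds injected on FLIPR Tetra (0.5% DMSO) in dose-response from 100 μM (1:2) or 50 μM (1:3.16); fluorescence kinetics 300 s, referenced to 50 μM ML-SA1 stimulator control.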
# T1 sequence (Q9GZU1 whole entry): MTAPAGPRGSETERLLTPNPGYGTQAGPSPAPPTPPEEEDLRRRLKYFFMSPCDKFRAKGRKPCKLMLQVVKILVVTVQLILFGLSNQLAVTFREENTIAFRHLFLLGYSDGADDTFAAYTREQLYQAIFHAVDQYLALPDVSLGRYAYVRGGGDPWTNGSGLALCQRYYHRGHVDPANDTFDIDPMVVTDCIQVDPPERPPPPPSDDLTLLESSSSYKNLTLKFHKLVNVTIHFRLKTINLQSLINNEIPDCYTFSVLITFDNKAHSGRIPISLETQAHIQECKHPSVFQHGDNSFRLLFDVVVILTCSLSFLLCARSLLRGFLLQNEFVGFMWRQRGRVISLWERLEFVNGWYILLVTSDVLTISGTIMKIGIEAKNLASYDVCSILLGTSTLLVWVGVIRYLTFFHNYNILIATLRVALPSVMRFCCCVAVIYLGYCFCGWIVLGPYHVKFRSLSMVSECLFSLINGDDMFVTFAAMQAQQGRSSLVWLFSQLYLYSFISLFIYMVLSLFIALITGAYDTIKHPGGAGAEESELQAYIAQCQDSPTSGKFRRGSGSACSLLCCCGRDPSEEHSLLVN
smiles,measurement,setting,value
"CCCN(C)C(=O)N1CCN(c2ccccc2NS(=O)(=O)c2ccc(S(=O)(=O)N(C)C)cc2)CC1 [Example 82, 4-{2-[4-(dimethylsulfamoyl)benzenesulfonamido]phenyl}-N-methyl-N-propylpiperazine-1-carboxamide]",Qpatch Assay TRPML1 agonism Current fold increase Mean ± SEM (n),TRPML1 [1]; 0.3 μM compound,2.5 ± 1.3 (3)
same,Qpatch Assay TRPML1 agonism Current fold increase Mean ± SEM (n),TRPML1 [1]; 3.0 μM compound,12.5 ± 8.6 (3)
same,Qpatch Assay TRPML1 agonism Current fold increase Mean ± SEM (n),TRPML1 [1]; 30 μM compound,138 ± 55.7 (3)
same,EC50,TRPML1 [2],5.9 µM
COc1ccc(S(=O)(=O)Nc2ccccc2N2CCC(C(=O)OC(C)(C)C)CC2)cc1 [Example 91],Qpatch Assay TRPML1 agonism Current fold increase Mean ± SEM (n),TRPML1 [1]; 0.3 μM compound,3.1 ± 1.2 (3)
same,Qpatch Assay TRPML1 agonism Current fold increase Mean ± SEM (n),TRPML1 [1]; 3.0 μM compound,21.7 ± 7.9 (3)
same,Qpatch Assay TRPML1 agonism Current fold increase Mean ± SEM (n),TRPML1 [1]; 30 μM compound,58.8 ± 16.6 (3)
same,EC50,TRPML1 [2],3.3 µM
"CN(C)S(=O)(=O)c1ccc(S(=O)(=O)Nc2ccccc2N2CCC(Oc3ccccc3)CC2)cc1 [Example 24, N1,N1-dimethyl-N4-[2-(4-phenoxypiperidin-1-yl)phenyl]benzene-1,4-disulfonamide]",Qpatch Assay TRPML1 agonism Current fold increase Mean ± SEM (n),TRPML1 [1]; 0.3 μM compound,4.6 ± 1.8 (4)
same,Qpatch Assay TRPML1 agonism Current fold increase Mean ± SEM (n),TRPML1 [1]; 3.0 μM compound,168.8 ± 96.1 (4)
same,Qpatch Assay TRPML1 agonism Current fold increase Mean ± SEM (n),TRPML1 [1]; 30 μM compound,687.7 (1)
same,EC50,TRPML1 [2],2.1 µM
"CN(C)S(=O)(=O)c1ccc(S(=O)(=O)Nc2ccccc2N2CCC(OCc3ccccc3)CC2)cc1 [Example 25, N4-{2-[4-(benzyloxy)piperidin-1-yl]phenyl}-N1,N1-dimethylbenzene-1,4-disulfonamide]",Qpatch Assay TRPML1 agonism Current fold increase Mean ± SEM (n),TRPML1 [1]; 0.3 μM compound,3.5 ± 1.8 (3)
same,Qpatch Assay TRPML1 agonism Current fold increase Mean ± SEM (n),TRPML1 [1]; 3.0 μM compound,177.1 ± 38.2 (3)
same,Qpatch Assay TRPML1 agonism Current fold increase Mean ± SEM (n),TRPML1 [1]; 30 μM compound,1013.8 (1)
same,EC50,TRPML1 [2],1.8 µM
"COc1ccc(S(=O)(=O)Nc2ccccc2N2CCN(C(=O)OC(C)(C)C)CC2)cc1 [Example 84, t-butyl 4-[2-(4-methoxybenzenesulfonamido)phenyl]piperazine-1-carboxylate]",Qpatch Assay TRPML1 agonism Current fold increase Mean ± SEM (n),TRPML1 [1]; 0.3 μM compound,8.6 ± 1.3 (2)
same,Qpatch Assay TRPML1 agonism Current fold increase Mean ± SEM (n),TRPML1 [1]; 3.0 μM compound,32.9 ± 3.5 (2)
same,Qpatch Assay TRPML1 agonism Current fold increase Mean ± SEM (n),TRPML1 [1]; 30 μM compound,42.7 ± 1.4 (2)
same,EC50,TRPML1 [2],4.2 µM
"CN(C)S(=O)(=O)c1ccc(S(=O)(=O)Nc2ccccc2N2CCN(C(=O)c3ccccc3)CC2)cc1 [Example 73, N4-[2-(4-benzoylpiperazin-1-yl)phenyl]-N1,N1-dimethylbenzene-1,4-disulfonamide]",Qpatch Assay TRPML1 agonism Current fold increase Mean ± SEM (n),TRPML1 [1]; 0.3 μM compound,−0.070
same,Qpatch Assay TRPML1 agonism Current fold increase Mean ± SEM (n),TRPML1 [1]; 3.0 μM compound,−0.31
same,Qpatch Assay TRPML1 agonism Current fold increase Mean ± SEM (n),TRPML1 [1]; 30 μM compound,11.3
same,EC50,TRPML1 [2],6.4 µM
"CN(C)S(=O)(=O)c1ccc(S(=O)(=O)Nc2ccccc2C2CCN(C(=O)OC(C)(C)C)CC2)cc1 [Example 78, f-butyl 4-{2-[4-(dimethylsulfamoyl)benzenesulfonamido]phenyl} piperidine-1-carboxylate]",Qpatch Assay TRPML1 agonism Current fold increase Mean ± SEM (n),TRPML1 [1]; 0.3 μM compound,0.68 ± 0.34 (3)
same,Qpatch Assay TRPML1 agonism Current fold increase Mean ± SEM (n),TRPML1 [1]; 3.0 μM compound,16.5 ± 9.1 (3)
same,Qpatch Assay TRPML1 agonism Current fold increase Mean ± SEM (n),TRPML1 [1]; 30 μM compound,166 ± 75.7 (3)
same,EC50,TRPML1 [2],6.9 µM
"CC(C)CNC(=O)C1CCN(c2ccccc2NS(=O)(=O)c2ccc(S(=O)(=O)N(C)C)cc2)CC1 [Example 88, 1-{2-[4-(dimethylsulfamoyl)benzenesulfonamido]phenyl}-N-(2-methylpropyl)piperidine-4-carboxamide]",Qpatch Assay TRPML1 agonism Current fold increase Mean ± SEM (n),TRPML1 [1]; 0.3 μM compound,−0.066 ± 0.080 (3)
same,Qpatch Assay TRPML1 agonism Current fold increase Mean ± SEM (n),TRPML1 [1]; 3.0 μM compound,3.9 ± 2.5 (3)
same,Qpatch Assay TRPML1 agonism Current fold increase Mean ± SEM (n),TRPML1 [1]; 30 μM compound,125 ± 75.3 (3)
same,EC50,TRPML1 [2],6.5 µM
"CN(C)S(=O)(=O)c1ccc(S(=O)(=O)NC2CCCCC2N2CCC(Oc3ccccc3)CC2)cc1 (single isomer, unassigned) [Example 63, N1,N1-dimethyl-N4-[2-(4-phenoxypiperidin-1-yl)cyclohexyl]benzene-1,4-disulfonamide]",Qpatch Assay TRPML1 agonism Current fold increase Mean ± SEM (n),TRPML1 [1]; 0.3 μM compound,0.042 ± 0.153 (2)
same,Qpatch Assay TRPML1 agonism Current fold increase Mean ± SEM (n),TRPML1 [1]; 3.0 μM compound,0.86 ± 0.60 (2)
same,Qpatch Assay TRPML1 agonism Current fold increase Mean ± SEM (n),TRPML1 [1]; 30 μM compound,4.3 ± 0.9 (2)
same,EC50,TRPML1 [2],1.7 µM
"COC1CCN(c2ccccc2NS(=O)(=O)c2ccc(S(=O)(=O)N(C)C)cc2)CC1 [Example 26, N4-[2-(4-methoxypiperidin-1-yl)phenyl]-N1,N1-dimethylbenzene-1,4-disulfonamide]",Qpatch Assay TRPML1 agonism Current fold increase Mean ± SEM (n),TRPML1 [1]; 0.3 μM compound,0.46 ± 0.16 (3)
same,Qpatch Assay TRPML1 agonism Current fold increase Mean ± SEM (n),TRPML1 [1]; 3.0 μM compound,41.4 ± 21.1
same,Qpatch Assay TRPML1 agonism Current fold increase Mean ± SEM (n),TRPML1 [1]; 30 μM compound,390 ± 158 (3)
same,EC50,TRPML1 [2],4.5 µM
"CN(C)S(=O)(=O)c1ccc(S(=O)(=O)Nc2ccccc2N2CCCCCC2)cc1 [Example 85, N4-[2-(azepan-1-yl)phenyl]-N 1 ,N1-dimethylbenzene-1,4-disulfonamide]",Qpatch Assay TRPML1 agonism Current fold increase Mean ± SEM (n),TRPML1 [1]; 0.3 μM compound,17.7 ± 5.5 (4)
same,Qpatch Assay TRPML1 agonism Current fold increase Mean ± SEM (n),TRPML1 [1]; 3.0 μM compound,206 ± 167 (2)
same,Qpatch Assay TRPML1 agonism Current fold increase Mean ± SEM (n),TRPML1 [1]; 30 μM compound,260 ± 202 (2)
same,EC50,TRPML1 [2],1.6 µM
"CN(C)S(=O)(=O)c1ccc(S(=O)(=O)Nc2ccccc2N2CCN(C(=O)OCC(F)(F)F)CC2)cc1 [Example 53, 2,2,2-trifluoroethyl4-{2-[4-(dimethylsulfamoyl)benzenesulfonamido]phenyl}piperazine-1-carboxylate]",Qpatch Assay TRPML1 agonism Current fold increase Mean ± SEM (n),TRPML1 [1]; 0.3 μM compound,1.9 ± 1.6 (3)
same,Qpatch Assay TRPML1 agonism Current fold increase Mean ± SEM (n),TRPML1 [1]; 3.0 μM compound,88.3 ± 59.9 (3)
same,Qpatch Assay TRPML1 agonism Current fold increase Mean ± SEM (n),TRPML1 [1]; 30 μM compound,257.4 ± 190.7 (3)
same,EC50,TRPML1 [2],3.6 µM
"CCOC(=O)N1CCN(c2ccccc2NS(=O)(=O)c2ccc(S(=O)(=O)N(C)C)cc2)CC1 [Example 70, ethyl4-{2-[4-(dimethylsulfamoyl)benzenesulfonamido]phenyl}piperazine-1-carboxylate]",Qpatch Assay TRPML1 agonism Current fold increase Mean ± SEM (n),TRPML1 [1]; 0.3 μM compound,0.5 ± 0.3 (3)
same,Qpatch Assay TRPML1 agonism Current fold increase Mean ± SEM (n),TRPML1 [1]; 3.0 μM compound,22.5 ± 10.6 (3)
same,Qpatch Assay TRPML1 agonism Current fold increase Mean ± SEM (n),TRPML1 [1]; 30 μM compound,656.7 ± 150.5 (3)
same,EC50,TRPML1 [2],3.2 µM
"CN(C)S(=O)(=O)c1ccc(S(=O)(=O)NCc2ccccc2N2CCCCC2)cc1 [Example 74, N1,N1-dimethyl-N4-{[2-(piperidin-1-yl)phenyl]methyl}benzene-1,4-disulfonamide]",Qpatch Assay TRPML1 agonism Current fold increase Mean ± SEM (n),TRPML1 [1]; 0.3 μM compound,4.3 ± 2.0 (6)
same,Qpatch Assay TRPML1 agonism Current fold increase Mean ± SEM (n),TRPML1 [1]; 3.0 μM compound,356 ± 69.7 (6)
same,Qpatch Assay TRPML1 agonism Current fold increase Mean ± SEM (n),TRPML1 [1]; 30 μM compound,639 + 241 (3)
same,EC50,TRPML1 [2],3.2 µM
"Cc1ccc(S(=O)(=O)Nc2ccccc2N2CCN(C(=O)OC(C)(C)C)CC2)cc1 [Example 83, t-butyl 4-[2-(4-methylbenzenesulfonamido)phenyl]piperazine-1-carboxylate]",Qpatch Assay TRPML1 agonism Current fold increase Mean ± SEM (n),TRPML1 [1]; 0.3 μM compound,70.2 ± 13.8 (4)
same,Qpatch Assay TRPML1 agonism Current fold increase Mean ± SEM (n),TRPML1 [1]; 3.0 μM compound,125.0 ± 31.0 (4)
same,Qpatch Assay TRPML1 agonism Current fold increase Mean ± SEM (n),TRPML1 [1]; 30 μM compound,140.3 ± 36.8 (4)
same,EC50,TRPML1 [2],1.8 µM
